According to ChEMBL document CHEMBL1132520, “Antimalarial activity of 3-hydroxyalkyl-2-methylene-propionic acid derivatives” (1999):
Active and inactive are the calls of the source. No cut-off for these calls is given here.

How the values were obtained:
[1] = test system: Mus musculus; experiment: In vivo anti-malarial activity against Plasmodium berghei in mice (Mus musculus) at a dose of 16 mg/kg; Active; type: functional, organism-based; set-up: dose 16 mg/kg
[2] = test system: Mus musculus; experiment: In vivo anti-malarial activity against Plasmodium berghei in mice (Mus musculus) at a dose of 80 mg/kg; Active; type: functional, organism-based; set-up: dose 80 mg/kg
[3] = test system: Mus musculus; experiment: Antimalarial activity against Plasmodium berghei evaluated in terms of mean survival time for mice (Mus musculus) at a dose of 160 mg/kg; type: functional
[4] = test system: Mus musculus; experiment: Anti-malarial activity against Plasmodium berghei evaluated in terms of mean survival time for mice (Mus musculus) at a dose of 20 mg/kg; type: functional
[5] = test system: Mus musculus; experiment: Antimalarial activity against Plasmodium berghei evaluated in terms of mean survival time for mice (Mus musculus) at a dose of 40 mg/kg; type: functional
[6] = test system: Mus musculus; experiment: Antimalarial activity against Plasmodium berghei evaluated in terms of mean survival time for mice (Mus musculus) at a dose of 80 mg/kg; type: functional
[7] = test system: Plasmodium falciparum; experiment: In vitro antimalarial activity for Plasmodium falciparum at 100 uM/well dose at 24 hrs in Schizont maturation assay; type: functional
[8] = test system: Plasmodium falciparum; experiment: In vitro antimalarial activity for Plasmodium falciparum at 10 uM/well dose at 24 hrs in Schizont maturation assay; type: functional
[9] = test system: Plasmodium falciparum; experiment: In vitro antimalarial activity for Plasmodium falciparum at 1 uM/well dose at 24 hrs in Schizont maturation assay; type: functional
[10] = test system: Plasmodium falciparum; experiment: In vitro antimalarial activity for Plasmodium falciparum at 2.5 uM/well dose at 24 hrs in Schizont maturation assay; type: functional
[11] = test system: Plasmodium falciparum; experiment: In vitro antimalarial activity for Plasmodium falciparum at 20 uM/well dose at 24 hrs in Schizont maturation assay; type: functional
[12] = test system: Plasmodium falciparum; experiment: In vitro antimalarial activity for Plasmodium falciparum at 500 uM/well dose at 24 hrs in Schizont maturation assay; type: functional
[13] = test system: Plasmodium falciparum; experiment: In vitro antimalarial activity for Plasmodium falciparum at 50 uM/well dose at 24 hrs in Schizont maturation assay; type: functional
[14] = test system: Plasmodium falciparum; experiment: In vitro antimalarial activity for Plasmodium falciparum at 5 uM/well dose at 24 hrs in Schizont maturation assay; type: functional
[15] = test system: Plasmodium falciparum; experiment: In vitro inhibition of Plasmodium falciparum at 50 uM/well dose at 72 hrs in total parasite growth assay; type: functional
[16] = test system: Plasmodium falciparum; experiment: In vitro inhibition of Plasmodium falciparum at 5 uM/well dose at 72 hrs in total parasite growth assay; type: functional
[17] = test system: Plasmodium falciparum; experiment: In vitro inhibition of Plasmodium falciparum at 0.25 uM/well dose at 72 hrs in total parasite growth assay; type: functional
[18] = test system: Plasmodium falciparum; experiment: In vitro inhibition of Plasmodium falciparum at 0.5 uM/well dose at 72 hrs in total parasite growth assay; type: functional
[19] = test system: Plasmodium falciparum; experiment: In vitro inhibition of Plasmodium falciparum at 2.5 uM/well dose at 72 hrs in total parasite growth assay; type: functional
[20] = test system: Plasmodium falciparum; experiment: In vitro inhibition of Plasmodium falciparum at 20 uM/well dose at 72 hrs in total parasite growth assay; type: functional
[21] = test system: Plasmodium falciparum; experiment: In vitro inhibition of Plasmodium falciparum at 1.0 uM/well dose at 72 hrs in total parasite growth assay; type: functional
[22] = test system: Plasmodium falciparum; experiment: In vitro inhibition of Plasmodium falciparum at 100 uM/well dose at 72 hrs in total parasite growth assay; type: functional
[23] = test system: Plasmodium falciparum; experiment: In vitro inhibition of Plasmodium falciparum at 10 uM/well dose at 72 hrs in total parasite growth assay; type: functional
[24] = test system: Plasmodium falciparum; experiment: In vitro antimalarial activity for Plasmodium falciparum at 0.50 uM/well dose at 24 hrs in Schizont maturation assay; type: functional
[25] = test system: Plasmodium falciparum; experiment: In vitro antimalarial activity for Plasmodium falciparum at 0.10 uM/well dose at 24 hrs in Schizont maturation assay; type: functional
[26] = test system: Plasmodium falciparum; experiment: In vitro antimalarial activity for Plasmodium falciparum at 0.25 uM/well dose at 24 hrs in Schizont maturation assay; type: functional
[27] = test system: Mus musculus; experiment: In vivo anti-malarial activity against Plasmodium berghei in mice (Mus musculus) at a dose of 160 mg/kg; Active; type: functional, organism-based; set-up: dose 160 mg/kg
[28] = test system: Plasmodium falciparum; experiment: In vitro inhibition of chloroquine-resistant Plasmodium falciparum at 0.25 uM/well dose at 72 hrs in total parasite growth assay; type: functional
[29] = test system: Plasmodium falciparum; experiment: In vitro inhibition of chloroquine-resistant Plasmodium falciparum at 0.5 uM/well dose at 72 hrs in total parasite growth assay; type: functional
[30] = test system: Plasmodium falciparum; experiment: In vitro antimalarial activity for chloroquine-resistant Plasmodium falciparum at 50 uM/well dose at 24 hrs in Schizont maturation assay; type: functional
[31] = test system: Plasmodium falciparum; experiment: In vitro antimalarial activity for chloroquine-resistant Plasmodium falciparum at 5 uM/well dose at 24 hrs in Schizont maturation assay; type: functional
[32] = test system: Plasmodium falciparum; experiment: In vitro antimalarial activity for chloroquine-resistant Plasmodium falciparum at 0.25 uM/well dose at 24 hrs in Schizont maturation assay; type: functional
[33] = test system: Plasmodium falciparum; experiment: In vitro antimalarial activity for chloroquine-resistant Plasmodium falciparum at 100 uM/well dose at 24 hrs in Schizont maturation assay; type: functional
[34] = test system: Plasmodium falciparum; experiment: In vitro antimalarial activity for chloroquine-resistant Plasmodium falciparum at 10 uM/well dose at 24 hrs in Schizont maturation assay; type: functional
[35] = test system: Plasmodium falciparum; experiment: In vitro antimalarial activity for chloroquine-resistant Plasmodium falciparum at 1 uM/well dose at 24 hrs in Schizont maturation assay; type: functional
[36] = test system: Plasmodium falciparum; experiment: In vitro antimalarial activity for chloroquine-resistant Plasmodium falciparum at 2.5 uM/well dose at 24 hrs in Schizont maturation assay; type: functional
[37] = test system: Plasmodium falciparum; experiment: In vitro antimalarial activity for chloroquine-resistant Plasmodium falciparum at 20 uM/well dose at 24 hrs in Schizont maturation assay; type: functional
[38] = test system: Plasmodium falciparum; experiment: In vitro inhibition of Plasmodium falciparum at 25 uM/well dose at 72 hrs in total parasite growth assay; type: functional
[39] = test system: Plasmodium falciparum; experiment: In vitro inhibition of chloroquine-resistant Plasmodium falciparum at 1.0 uM/well dose at 72 hrs in total parasite growth assay; type: functional
[40] = test system: Plasmodium falciparum; experiment: In vitro antimalarial activity for chloroquine-resistant Plasmodium falciparum at 0.10 uM/well dose at 24 hrs in Schizont maturation assay; type: functional
[41] = test system: Plasmodium falciparum; experiment: In vitro antimalarial activity for chloroquine-resistant Plasmodium falciparum at 0.5 uM/well dose at 24 hrs in Schizont maturation assay; type: functional
[42] = test system: Plasmodium falciparum; experiment: In vitro inhibition of Plasmodium falciparum at 5 uM/well dose at 72 hrs in total parasite growth assay; Not determined; type: functional

Row | Structure (SMILES) | Activity [2] | Mean survival time [3] | Mean survival time [4] | Mean survival time [5] | Mean survival time [6] | inhibition at 100 µM [7] | inhibition at 10 µM [8] | inhibition at 1 µM [9] | inhibition at 2.5 µM [10] | inhibition at 20 µM [11] | inhibition at 500 µM [12] | inhibition at 5 µM [14] | PGI [18] | PGI [19] | PGI [21] | PGI [22] | PGI [23] | inhibition at 0.5 µM [24] | inhibition at 0.1 µM [25] | inhibition at 0.25 µM [26] | also measured
1 | C=C(C#N)C(O)c1cccnc1 (configuration not stated) | Active | 15.2 days | 6.4 days | 8.8 days | 13.4 days | 100% | 100% | 93% | 100% | 100% | 100% | 100% | 55% | 82.5% | 77.5% | 100% | 97.5% | 50% | 0% | 12% | Activity [1]: Active; inhibition at 50 µM [13]: 100%; PGI [15]: 100%; PGI [16]: 90%; PGI [17]: 20%; PGI [20]: 100%
2 | C=C(C#N)C(O)c1ccc([N+](=O)[O-])cc1 (configuration not stated) | Active | 14.4 days | 9.4 days | 11.8 days | 12.8 days | 100% | 100% | 75.2% | 84% | 100% | 100% | 100% | 92% | 100% | 100% | 100% | 100% | 68% | 41.2% | 56.4% | Activity [27]: Active; PGI [28]: 73%; PGI [29]: 82%; inhibition at 50 µM [30]: 100%; inhibition at 5 µM [31]: 100%; inhibition at 50 µM [13]: 100%; inhibition at 0.25 µM [32]: 58%; inhibition at 100 µM [33]: 100%; inhibition at 10 µM [34]: 100%; inhibition at 1 µM [35]: 86%; inhibition at 2.5 µM [36]: 100%; inhibition at 20 µM [37]: 100%; PGI [15]: 100%; PGI [16]: 100%; PGI [17]: 83%; PGI [20]: 100%; PGI [38]: 100%; PGI [39]: 94%; inhibition at 0.1 µM [40]: 47.7%; inhibition at 0.5 µM [41]: 75%
3 | C=C(C#N)C(O)c1ccccc1 (configuration not stated) | – | – | – | – | – | 100% | 80% | 25.7% | 62.8% | 85% | – | 65.7% | 8.6% | 62.8% | 25.7% | 100% | 80% | 8.6% | 0% | 0% | PGI [42]: 65.7%; PGI [38]: 85%
